Experimental data taken from patent US6583180B2, “Glucocorticoid receptor modulators” (Abbott Laboratories, priority 2001, dated 2003).

Legend:
[1] = target: T1, Human glucocorticoid receptors (Homo sapiens, UniProt P04150); test: Radioligand filter binding assay, displacement of 3[H]-dexamethasone from hGR; conditions: read-out: GR Binding (% Inhibition at 1.7 μM)
T1 construct: made in house; host or cells: Sf9 insect cells, recombinant baculovirus (BAC-TO-BAC)
T1 sequence (P04150 1-777): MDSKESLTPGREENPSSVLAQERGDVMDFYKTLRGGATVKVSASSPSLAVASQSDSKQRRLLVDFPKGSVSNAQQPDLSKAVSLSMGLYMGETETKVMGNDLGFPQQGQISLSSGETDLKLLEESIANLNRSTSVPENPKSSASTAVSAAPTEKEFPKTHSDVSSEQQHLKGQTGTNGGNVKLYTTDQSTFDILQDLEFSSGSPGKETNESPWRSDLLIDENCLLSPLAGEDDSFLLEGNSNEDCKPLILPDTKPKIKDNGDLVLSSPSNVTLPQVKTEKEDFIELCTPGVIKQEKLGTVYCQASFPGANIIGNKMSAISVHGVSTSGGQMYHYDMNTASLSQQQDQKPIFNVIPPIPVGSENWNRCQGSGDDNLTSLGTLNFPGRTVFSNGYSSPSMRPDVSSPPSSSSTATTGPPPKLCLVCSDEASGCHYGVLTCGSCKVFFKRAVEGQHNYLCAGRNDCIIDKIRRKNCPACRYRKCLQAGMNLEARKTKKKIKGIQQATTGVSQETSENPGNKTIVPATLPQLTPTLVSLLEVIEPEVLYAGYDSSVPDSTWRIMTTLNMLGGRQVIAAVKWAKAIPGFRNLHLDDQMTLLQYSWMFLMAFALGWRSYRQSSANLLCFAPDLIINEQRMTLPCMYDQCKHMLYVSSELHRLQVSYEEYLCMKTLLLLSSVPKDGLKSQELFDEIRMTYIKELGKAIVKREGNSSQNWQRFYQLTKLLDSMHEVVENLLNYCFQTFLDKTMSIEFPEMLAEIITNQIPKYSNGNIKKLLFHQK
Outline: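 Recombinant hGR extract from baculovirus-infected Sf9 cells (final ~1 nM receptor) incubated with ³H-dexamethasone and test compound dilutions in duplicate, EDTA/phosphate pH 8 buffer with MTG, overnight (15-20 h) at +4° C. Bound label collected on PEI-treated GF/B filters and scintillation-counted; IC50 from four-parameter fit of corrected cpm.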

[2] = target: T2, progesterone receptor (PR) (Homo sapiens, UniProt P06401); test: Radioligand binding assay for progesterone receptor (similar protocol);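 note: radioligand binding measured with cytosol preparations containing the human progesterone receptor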
T2 sequence (P06401 1-933): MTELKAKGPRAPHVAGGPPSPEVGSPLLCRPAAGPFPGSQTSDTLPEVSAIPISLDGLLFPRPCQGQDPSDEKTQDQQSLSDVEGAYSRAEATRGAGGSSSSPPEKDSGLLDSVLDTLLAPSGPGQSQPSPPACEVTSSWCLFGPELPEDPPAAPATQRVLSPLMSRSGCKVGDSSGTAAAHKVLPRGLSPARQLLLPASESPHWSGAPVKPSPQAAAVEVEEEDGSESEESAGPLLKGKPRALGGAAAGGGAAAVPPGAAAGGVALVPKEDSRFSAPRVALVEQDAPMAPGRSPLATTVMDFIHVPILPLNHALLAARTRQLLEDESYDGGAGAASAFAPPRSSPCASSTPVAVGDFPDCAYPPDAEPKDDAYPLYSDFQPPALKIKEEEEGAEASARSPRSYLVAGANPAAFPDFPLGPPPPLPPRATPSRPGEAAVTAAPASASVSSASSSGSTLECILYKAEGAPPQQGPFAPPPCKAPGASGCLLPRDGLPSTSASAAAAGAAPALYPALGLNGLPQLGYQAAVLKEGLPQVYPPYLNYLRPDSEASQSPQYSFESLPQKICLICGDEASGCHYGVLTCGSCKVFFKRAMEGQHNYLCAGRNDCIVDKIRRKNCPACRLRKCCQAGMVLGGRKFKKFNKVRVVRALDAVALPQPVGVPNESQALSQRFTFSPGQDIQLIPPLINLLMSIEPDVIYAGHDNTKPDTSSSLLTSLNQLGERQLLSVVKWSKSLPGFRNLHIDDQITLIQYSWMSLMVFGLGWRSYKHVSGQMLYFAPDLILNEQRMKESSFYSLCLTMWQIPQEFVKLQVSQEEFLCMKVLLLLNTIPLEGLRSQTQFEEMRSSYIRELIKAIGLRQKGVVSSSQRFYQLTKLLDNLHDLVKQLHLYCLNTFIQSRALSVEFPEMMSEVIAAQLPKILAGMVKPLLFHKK
From the text: Methods for Radiolipand Binding Studies with Human Glucocorticoid and Progesterone Receptor Cytosol

SMILES	inhibition at 1.7 µM [1] [%]	IC50 [2] [µM]
CCOC(=O)/C=C/c1c(NS(C)(=O)=O)cccc1N(Cc1ccccc1)Cc1ccccc1 [Example 40, N-[3-(dibenzylamino)-2-((E)-3-ethoxy-3-oxo-1-propenyl)phenyl]methanesulfonamide]	87	> 10
COCCOc1cc(Oc2ccc(CN(Cc3ccccc3)c3cccc(NS(C)(=O)=O)c3C)cc2)ccc1CCCC(=O)O [Example 63]	96.2	0.648
CCOC(=O)CCCc1ccc(Oc2ccc(CN(Cc3ccccc3)c3cccc(NS(C)(=O)=O)c3C)cc2)cc1 [Example 64, ethyl 4-(4-{4-[(benzyl{2-methyl-3-[(methylsulfonyl)amino]phenyl}amino)methyl]phenoxy}phenyl)butanoate]	93.5	1.18
Cc1c(NS(C)(=O)=O)cccc1N(Cc1ccccc1)Cc1ccc(Oc2ccc(Br)c(OCC(=O)O)c2)cc1 [Example 77, (5-{4-[(benzyl{2-methyl-3-[(methylsulfonyl)amino]phenyl}amino)methyl]phenoxy}-2-bromophenoxy)acetic acid]	97.1	0.249
Cc1c(NS(C)(=O)=O)cccc1N(Cc1ccccc1)Cc1ccc(Oc2cccc(OCCNC(=O)CCC(=O)O)c2)cc1 [Example 78, 4-{[2-(3-{4-[(benzyl{2-methyl-3-[(methylsulfonyl)amino]phenyl}amino)methyl]phenoxy}phenoxy)ethyl]amino}-4-oxobutanoic acid]	97.3	> 1
Cc1c(NS(C)(=O)=O)cccc1N(Cc1ccccc1)Cc1ccc(Oc2cccc(OCCNC(=O)CCCC(=O)O)c2)cc1 [Example 79, 5-{[2-(3-{4-[(benzyl{2-methyl-3-[(methylsulfonyl)amino]phenyl}amino)methyl]phenoxy}phenoxy)ethyl]amino}-5-oxopentanoic acid]	97.2	1.1
Cc1c(NS(C)(=O)=O)cccc1N(Cc1ccccc1)Cc1ccc(Oc2ccc(CCCCO)cc2)cc1 [Example 101, N-[3-(benzyl{4-[4-(4-hydroxybutyl)phenoxy]benzyl}amino)-2-methylphenyl]methanesulfonamide]	92.9	1.03
Cc1c(NS(C)(=O)=O)cccc1N(Cc1ccccc1)Cc1ccc(Oc2ccc(CCC(=O)NCC(=O)O)cc2)cc1 [Example 104, N-[3-(4-{4-[(benzyl{2-methyl-3-[(methylsulfonyl)amino]phenyl}amino)methyl]phenoxy}phenyl)propanoyl]glycine]	95.7	0.583
Cc1c(NS(C)(=O)=O)cccc1N(Cc1ccccc1)Cc1ccc(Oc2ccc(CCC(=O)NCCC(=O)O)cc2)cc1 [Example 105, N-[3-(4-{4-[(benzyl{2-methyl-3-[(methylsulfonyl)amino]phenyl}amino)methyl]phenoxy}phenyl)propanoyl]-beta-alanine]	96.2	0.685

Now from value to compound:

inhibition at 1.7 µM [1] [%]	IC50 [2] [µM]	SMILES
91.1	0.66	CCCOc1ccc(CN(Cc2ccc(F)cc2F)c2cccc(NS(C)(=O)=O)c2C)cc1 [Example 43, N-{3-[(2,4-difluorobenzyl)(4-propoxybenzyl)amino]-2-methylphenyl}methanesulfonamide]
94	0.633	Cc1c(NS(C)(=O)=O)cccc1N(Cc1ccccc1)Cc1ccc(Oc2cccc(CCCO)c2)cc1 [Example 65, N-[3-(benzyl{4-[3-(3-hydroxypropyl)phenoxy]benzyl}amino)-2-methylphenyl]methanesulfonamide]
89	0.667	COC(=O)c1cccc(Oc2ccc(CN(Cc3ccc(F)cc3F)c3cccc(NS(C)(=O)=O)c3C)cc2)c1 [Example 67, methyl 3-{4-[((2,4-difluorobenzyl){2-methyl-3-[(methylsulfonyl)amino]phenyl}amino)methyl]phenoxy}benzoate]
86.9	0.122	COCCOCCOc1cccc(Oc2ccc(CN(Cc3ccccc3)c3cccc(NS(C)(=O)=O)c3C)cc2)c1 [Example 69, N-{3-[benzyl(4-{3-[2-(2-methoxyethoxy)ethoxy]phenoxy}benzyl)amino]-2-methylphenyl}methanesulfonamide]
95.2	0.537	Cc1c(NS(C)(=O)=O)cccc1N(Cc1ccccc1)Cc1ccc(Oc2cccc(OCCCNS(C)(=O)=O)c2)cc1 [Example 71, N-[3-(3-{4-[(benzyl{2-methyl-3-[(methylsulfonyl)amino]phenyl}amino)methyl]phenoxy}phenoxy)propyl]methanesulfonamid]
92	0.462	Cc1c(NS(C)(=O)=O)cccc1N(Cc1ccccc1)Cc1ccc(Oc2cccc(OCCCN(C)C)c2)cc1 [Example 72, N-{3-[benzyl(4-{3-[3-(dimethylamino)propoxy]phenoxy}benzyl)amino]-2-methylphenyl}methanesulfonamide]
98.3	2.35	Cc1c(NS(C)(=O)=O)cccc1N(Cc1ccc(Oc2ccc(CCCC(=O)NCCCN3CCCC3=O)cc2)cc1)Cc1ccc(F)cc1F [Example 75, 4-(4-{4-[((2,4-difluorobenzyl){2-methyl-3-[(methylsulfonyl)amino]phenyl}amino)methyl]phenoxy}phenyl)-N-[3-(2-oxopyrrolidin-1-yl)propyl]butanamide]
96.5	0.149	Cc1c(NS(C)(=O)=O)cccc1N(Cc1ccc(Oc2ccc(CCC(=O)O)cc2)cc1)Cc1ccccc1Br [Example 76, 3-(4-{4-[((2-bromobenzyl){2-methyl-3-[(methylsulfonyl)amino]phenyl}amino)methyl]phenoxy}phenyl)propanoic acid]
96.2	0.622	Cc1c(NS(C)(=O)=O)cccc1N(Cc1ccccc1)Cc1ccc(Oc2cccc(OCCNS(C)(=O)=O)c2)cc1 [Example 81, N-[2-(3-{4-[(benzyl{2-methyl-3-[(methylsulfonyl)amino]phenyl}amino)methyl]phenoxy}phenoxy)ethyl]methanesulfonamide]
98.1	0.177	Cc1c(NS(C)(=O)=O)cccc1N(Cc1ccc(Oc2cccc(OCC(=O)O)c2)cc1)Cc1ccc(Cl)cc1F [Example 83, (3-{4-[((4-chloro-2-fluorobenzyl){2-methyl-3-[(methylsulfonyl)amino]phenyl}amino)methyl]phenoxy}phenoxy)acetic acid]
97.9	0.468	Cc1c(NS(C)(=O)=O)cccc1N(Cc1ccc(Oc2ccc(CCC(=O)O)cc2)cc1)Cc1ccccc1F [Example 84, 3-(4-{4-[((2-fluorobenzyl){2-methyl-3-[(methylsulfonyl)amino]phenyl}amino)methyl]phenoxy}phenyl)propanoic acid]
96.9	0.351	Cc1c(NS(C)(=O)=O)cccc1N(Cc1ccc(F)cc1)Cc1ccc(Oc2ccc(CCC(=O)O)cc2)cc1 [Example 85, 3-(4-{4-[((4-fluorobenzyl){2-methyl-3-[(methylsulfonyl)amino]phenyl}amino)methyl]phenoxy}phenyl)propanoic acid]
